# Structures can show the parent of a compound that is named as a salt. Where two headings read alike, the source gives them in different places.
# Experiments:
# [1] = test system: Her2 receptor expression at the surface of SKBr3 cells; assay: phenotypic SKBr3/HER2 cell test (Her2 surface expression by flow cytometry); assay type: cell-based; conditions: Homo sapiens, SK-BR-3, 24 h incubation, inhibition of Her2 expression
# In short: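 SKBr3 cells (Her2-overexpressing adenocarcinoma) treated 24 h with compound at varying concentrations, then stained with PE-anti-Her2 antibody 30 min at 4° C; surface Her2 measured by flow cytometry. IC50 from nonlinear fit of % inhibition of Her2 expression versus concentration.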
# Hsp82 = Hsp82 (Saccharomyces cerevisiae, UniProt P02829); assay: Hsp82/ATPase test (malachite green or PK/LDH coupled method); assay type: biochemical
# Protocol: The biochemical activity of the compounds can in particular be evaluated by means of the “Hsp82/ATPase” test described below: The inorganic phosphate released during the hydrolysis of ATP by the ATPase activity of Hsp82 is quantified by the malachite green method. In the presence of this reagent, formation of the inorganic phosphate-molybdate-malachite green complex, which absorbs at a wavelength of 620 nm, occurs. The products to be evaluated are incubated in a reaction volume of 30 μl, in the presence of 1 μM Hsp82 and of 250 μM of substrate (ATP) in a buffer composed of 50 mM Hepes-NaOH (pH 7.5), 1 mM DTT, 5 mM MgCl2 and 50 mM KCl at 37° C. for 60 min. In parallel, an inorganic phosphate range of between 1 and 40 μM is made up in the same buffer. […] After incubation at ambient temperature for 20 min, the absorbance of the various wells is measured using a microplate reader at 620 nm. The inorganic phosphate concentration of each sample is then calculated from the standard curve. The ATPase activity of Hsp82 is expressed as concentration of inorganic phosphate produced in 60 minutes. The effect of the various products tested is expressed as percentage inhibition of the ATPase activity. The formation of ADP due to the ATPase activity of Hsp82 was used to develop another method for evaluating the enzyme activity of this enzyme by application of an enzymatic coupling system involving pyruvate kinase (PK) and lactate dehydrogenase (LDH). In this kinetic-type spectrophotometric method, PK catalyses the formation of ATP and of pyruvate from phosphoenol pyruvate (PEP) and the ADP produced by Hsp82. The pyruvate formed, which is a substrate for LDH, is subsequently converted to lactate in the presence of NADH. In this case, the decrease in the NADH concentration, measured through the decrease in absorbance at the wavelength of 340 nm, is proportional to the concentration of ADP produced by Hsp82. The products tested are incubated in a reaction volume of 100 μl of buffer composed of 100 mM Hepes-NaOH (pH 7.5), 5 mM MgCl2, 1 mM DTT, 150 mM KCl, 0.3 mM NADH, 2.5 mM PEP and 250 μM ATP. This mixture is preincubated at 37° C. for 30 minutes before the addition of 3.77 units of LDH and 3.77 units of PK. The reaction is initiated by addition of the product to be evaluated, in varying concentrations, and of Hsp82, at the concentration of 1 μM. The enzymatic activity of Hsp82 is then measured continuously, in a microplate reader, at 37° C., at the wavelength of 340 nm. The initial rate of the reaction is obtained by measuring the slope of the tangent to the origin of the curve recorded. The enzymatic activity is expressed in μM of ADP formed per minute. The effect of the various products tested is expressed as percentage inhibition of the ATPase activity according to the codification below: […]
# [2] = 1 μM Hsp82, 250 μM ATP, 37° C., read-out: Hsp82 ATPase IC50
# Sequence of Hsp82 (P02829 whole entry): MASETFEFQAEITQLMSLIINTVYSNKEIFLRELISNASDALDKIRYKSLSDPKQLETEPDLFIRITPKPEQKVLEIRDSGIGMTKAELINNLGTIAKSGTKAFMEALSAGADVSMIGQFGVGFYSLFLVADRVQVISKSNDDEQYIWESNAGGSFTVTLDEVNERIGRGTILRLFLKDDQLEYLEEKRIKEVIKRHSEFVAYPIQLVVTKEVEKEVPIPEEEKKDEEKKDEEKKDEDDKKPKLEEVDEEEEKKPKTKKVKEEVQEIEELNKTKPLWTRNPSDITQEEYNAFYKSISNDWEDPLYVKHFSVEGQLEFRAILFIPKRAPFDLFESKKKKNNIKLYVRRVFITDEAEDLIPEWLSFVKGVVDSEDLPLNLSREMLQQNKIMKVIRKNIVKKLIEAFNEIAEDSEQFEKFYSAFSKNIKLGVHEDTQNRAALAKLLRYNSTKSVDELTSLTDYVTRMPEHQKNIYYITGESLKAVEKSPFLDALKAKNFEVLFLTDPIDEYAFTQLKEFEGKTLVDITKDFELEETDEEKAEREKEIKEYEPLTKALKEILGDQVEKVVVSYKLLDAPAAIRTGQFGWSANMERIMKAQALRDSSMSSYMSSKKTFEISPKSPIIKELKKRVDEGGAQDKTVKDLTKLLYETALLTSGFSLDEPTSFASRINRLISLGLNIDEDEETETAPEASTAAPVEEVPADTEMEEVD
IC50 [1] [µM],IC50 (Hsp82; [2]) [µM],melting point [°C],Compound,IC50 (Hsp82) [µM]
< 1,1 to 10,–,"CNC(=O)CNc1cc(-n2c3ccccc3c3c(-c4nc5ccc(F)cc5[nH]4)cccc32)ccc1C(N)=O [Example 44, 4-[4-(6-fluoro-1H-benzimidazol-2-yl)-9H-carbazol-9-yl]-2-(methylcarbamoylmethylamino)benzamide]",–
< 1,1 to 10,–,"CCOCCNc1cc(-n2c3ccccc3c3c(-c4nc5ccc(F)cc5[nH]4)cccc32)ccc1C(N)=O [Example 46, 2-(2-ethoxyethylamino)-4-[4-(6-fluoro-1H-benzimidazol-2-yl)-9H-carbazol-9-yl]benzamide]",–
< 1,< 1,–,"NC(=O)CCNc1cc(-n2c3ccccc3c3c(-c4nc5ccc(F)cc5[nH]4)cccc32)ccc1C(N)=O [Example 47, 2-(2-carbamoylethylamino)-4-[4-(6-fluoro-1H-benzimidazol-2-yl)-9H-carbazol-9-yl]benzamide]",–
< 1,1 to 10,–,"NC(=O)c1ccc(-n2c3ccccc3c3c(-c4nc5ccc(F)cc5[nH]4)cccc32)cc1NCc1ccco1 [Example 48, 4-[4-(6-fluoro-1H-benzimidazol-2-yl)-9H-carbazol-9-yl]-2-[(furan-2-ylmethyl)amino]benzamide]",–
< 1,1 to 10,–,"NC(=O)c1ccc(-n2c3ccccc3c3c(-c4nc5ccc(F)cc5[nH]4)cccc32)cc1NCc1ccoc1 [Example 50, 4-[4-(6-fluoro-1H-benzimidazol-2-yl)-9H-carbazol-9-yl]-2-[(furan-3-ylmethyl)amino]benzamide]",–
< 1,1 to 10,–,"NC(=O)c1ccc(-n2c3ccccc3c3c(-c4nc5ccc(F)cc5[nH]4)cccc32)cc1NCc1ccn[nH]1 [Example 51, 4-[4-(6-fluoro-1H-benzimidazol-2-yl)-9H-carbazol-9-yl]-2-[(2H-pyrazol-3-ylmethyl)amino]benzamide]",–
< 1,< 1,–,"NC(=O)c1ccc(-n2c3ccccc3c3c(-c4nc5ccc(F)cc5[nH]4)cccc32)cc1NC(CO)CO [Example 52, 4-[4-(6-fluoro-1H-benzimidazol-2-yl)-9H-carbazol-9-yl]-2-(2-hydroxy-1-hydroxymethylethylamino)benzamide]",–
1 to 10,1 to 10,–,"NCC(CO)Oc1cc(-n2c3ccccc3c3c(-c4nc5ccc(F)cc5[nH]4)cccc32)ccc1C(N)=O (centres unmarked) [Example 53, 2-(2-amino-1-hydroxymethylethyloxy)-4-[4-(6-fluoro-1H-benzimidazol-2-yl)-9H-carbazol-9-yl]benzamide]",–
< 1,< 1,–,COC[C@H](C)Nc1cc(-n2c3ccccc3c3c(-c4nc5ccc(F)cc5[nH]4)cccc32)ccc1C(N)=O [Example 54],–
1 to 10,1 to 10,–,"NC(=O)c1ccc(-n2c3ccccc3c3c(-c4nc5ccc(F)cc5[nH]4)cccc32)cc1NCc1c[nH]cn1 [Example 57, 4-[4-(6-fluoro-1H-benzimidazol-2-yl)-9H-carbazol-9-yl]-2-[(1H-imidazoly-4-yl)methylamino]benzamide]",–
< 1,< 1,–,"NC(=O)c1ccc(-n2c3ccccc3c3c(-c4nc5ccc(F)cc5[nH]4)cccc32)cc1NC1CCOCC1 [Example 59, 4-[4-(6-fluoro-1H-benzimidazol-2-yl)-9H-carbazol-9-yl]-2-(tetrahydropyran-4-ylamino)benzamide]",–
< 1,1 to 10,–,"CC(C)(O)CCNc1cc(-n2c3ccccc3c3c(-c4nc5ccc(F)cc5[nH]4)cccc32)ccc1C(N)=O [Example 61, 4-[4-(6-fluoro-1H-benzimidazol-2-yl)-9H-carbazol-9-yl]-2-(3-hydroxy-3-methylbutylamino)benzamide]",–
< 1,< 1,–,"NC(=O)c1ccc(-n2c3ccccc3c3c(-c4nc5ccc(F)cc5[nH]4)cccc32)cc1NCCF [Example 62, 4-[4-(6-fluoro-1H-benzimidazol-2-yl)-9H-carbazol-9-yl]-2-(2-fluoroethylamino)benzamide]",–
< 1,–,204,"N#Cc1ccc(-c2cccc3c2c2ccccc2n3-c2ccc(C(N)=O)c(NCCCO)c2)cn1 [Example 112, 4-[4-(6-cyanopyridin-3-yl)-9H-carbazol-9-yl]-2-[(3-hydroxypropyl)amino]benzamide]",–

# The remaining lines, values behind:
Compound,IC50 [1] [µM],IC50 (Hsp82; [2]) [µM],melting point [°C],IC50 (Hsp82) [µM]
"COc1cncc(-c2cccc3c2c2ccccc2n3-c2ccc(C(N)=O)c(N[C@H]3CC[C@H](O)CC3)c2)c1 [Example 27, 2-[(4-trans-hydroxycyclohexyl)amino]-4-[4-(5-methoxypyridin-3-yl)-9H-carbazol-9-yl]benzamide]",< 1,< 1,263,–
"NC(=O)c1ccc(-c2cccc3c2c2ccccc2n3-c2ccc(C(N)=O)c(N[C@H]3CC[C@H](O)CC3)c2)cn1 [Example 28, 5-(9-{4-carbamoyl-3-[(4-trans-hydroxycyclohexyl)amino]phenyl}-9H-carbazol-4-yl)pyridine-2-carboxamide]",< 1,1 to 10,> 260,–
"NC(=O)c1ccc(-n2c3ccccc3c3c(-c4cnc5ccccc5c4)cccc32)cc1NCC[N+]1([O-])CCCC1 [Example 45, 2-[2-(1-oxypyrrolidin-1-yl)ethylamino]-4-[4-(quinolin-3-yl)-9H-carbazol-9-yl]benzamide]",< 1,< 1,–,–
"N#Cc1ccc(-c2cccc3c2c2ccccc2n3-c2ccc(C(N)=O)c(N[C@H]3CC[C@H](O)CC3)c2)cn1 [Example 49, 4-[4-(6-cyanopyridin-3-yl)-9H-carbazol-9-yl]-2-[(4-trans-hydroxycyclohexyl)amino]benzamide]",< 1,< 1,274,–
"NC(=O)c1ccc(-n2c3ccccc3c3c(-c4cnc(N)nc4)cccc32)cc1N[C@H]1CC[C@H](O)CC1 [Example 55, 4-[4-(2-aminopyrimidin-5-yl)-9H-carbazol-9-yl]-2-[(4-trans-hydroxycyclohexyl)amino]benzamide hydrochloride]",< 1,< 1,–,–
"NC(=O)c1ncc(-n2c3ccccc3c3c(-c4cnc5ccccc5c4)cccc32)cc1N[C@H]1CC[C@H](O)CC1 [Example 58, 3-(4-trans-hydroxycyclohexylamino)-5-[(4-quinolin-3-yl)-9H-carbazol-9-yl]pyridine-2-carboxamide]",< 1,< 1,–,–
NC(=O)c1ccc(-n2c3ccccc3c3c(-c4cnc5ccccc5c4)cccc32)cc1NCCC1(O)CCCC1 [Example 64],< 1,< 1,–,–
"CN1CCC(O)(CCNc2cc(-n3c4ccccc4c4c(-c5cnc6ccccc6c5)cccc43)ccc2C(N)=O)CC1 [Example 65, 2-[2-(4-hydroxy-1-methylpiperidin-4-yl)ethylamino]-4-[4-(quinolin-3-yl)-9H-carbazol-9-yl]benzamide]",< 1,< 1,–,–
"NC(=O)c1ccc(-n2c3ccccc3c3c(-c4cncc(OCc5ccccc5)c4)cccc32)cc1N[C@H]1CC[C@H](O)CC1 [Example 67, 4-{4-[5-(benzyloxy)pyridin-3-yl]-9H-carbazol-9-yl}-2-[(4-trans-hydroxycyclohexyl)amino]benzamide]",1 to 10,1 to 10,–,–
"N#Cc1ccc(-c2cccc3c2c2ccccc2n3-c2ccc(C(N)=O)c(NC3CCOCC3)c2)cn1 [Example 126, 4-[4-(6-cyanopyridin-3-yl)-9H-carbazol-9-yl]-2-(tetrahydro-2H-pyran-4-ylamino)benzamide]",< 1,–,256,–
"CN1C2CCC1CC(Nc1cc(-n3c4ccccc4c4c(-c5cnc6ccccc6c5)cccc43)ccc1C(N)=O)C2 (centres unmarked) [Example 138, 2-(8-methyl-8-azabicyclo[3.2.1]oct-3-yl)amino-4-[4-(quinolin-3-yl)-9H-carbazol-9-yl]benzamide]",< 1,–,–,< 1

# From US8309721B2, “HSP90 inhibitory carbazole derivatives, compositions containing same and use thereof” (Sanofi, priority 2008, dated 2012)
